Reference: patent publication US7718394B2, “Methods for diagnosis and monitoring of neurological disease by detection of an encephalotoxin” (priority 2003, dated 2010)
“Also recorded” adds a separate entry of the source.

Assay: Inactivation of encephalotoxin by nitrous acid, heparin lyases and sulfatases (loss of neurotoxic activity)
Format: biochemical
Experimental: Structural characterization and inactivation of encephalotoxin (isolated by organic extractions, gel filtration, and sequential C18 HPLC from Aβ-stimulated microglial cell line BV2) was performed by various nitrous acid cleavage protocols. […] Traditionally, heparin lyase I acts primarily on heparin-containing GlcNS(1→4)IdoA2S sequences and heparin lyase III on HS primarily at a GlcNAc(1→4)IdoA or GlcNAc(1→4)GlcA sequence.
1 ml of CSF was fractionated by adsorption chromatography, dried under vacuum, and reconstituted in artificial CSF comprising electrolytes, such as NaCl, and glucose. Increasing amounts of fractionated toxin (range 0.1 to 500 ul equivalents of original sample volume) were added to triplicate cultures. Results were plotted as volume vs. % neuron kill (with kill calculated as % loss of immuno-stained hippocampal neurons against untreated control cultures). […] In order to compare different populations, a CSF Neurotoxicity Index was developed to assign scores that reflect level of neurotoxin. This index was calculated as an ED50 (the equivalent CSF volume that yields 50% of the maximal level of neuron killing).

Q: With O=NO [nitrous acid] as the molecule, how does the “inactivation of encephalotoxin released by BV2 microglia” value (encephalotoxin from Aβ-stimulated microglial cell line BV2, FIG. 1A) read?
A: The value was “inactivated; also recorded: eliminated”.

Q: What about the “inactivation of encephalotoxin recovered from lumbar CSF of subject with AD” value (lumbar CSF, AD, FIG. 1C) of the same molecule?
A: The value was “inactivated”.

Q: What about the “inactivation of encephalotoxin found in ventricular CSF of AD brain” value (ventricular CSF of AD brain, FIG. 1B) of the same molecule?
A: The value was “inactivated”.
